The results in this text go back to ChEMBL document CHEMBL5154736, “Stereochemically altered cephalosporins as potent inhibitors of New Delhi metallo-β-lactamases” (Eur J Med Chem, 2022).

The nature of data set [1]: Inhibition of bacterial NDM-1 using CDC-1 as substrate incubated for 30 mins. On the set-up: species or system Bacteria.
Data set [2] is described as follows: Inhibition of bacterial VIM-27 using CDC-1 as substrate incubated for 30 mins. On the set-up: species or system Bacteria.
Data set [3] is described as follows: Inhibition of bacterial IMP-1 using CDC-1 as substrate incubated for 30 mins. On the set-up: species or system Bacteria.
In data set [4] the test system is Escherichia coli. In words: Antibacterial activity against Escherichia coli expressing NDM-1 measured by broth microdilution method. The class given is functional.
A short description of data set [5]: Inhibition of bacterial NDM-3 using CDC-1 as substrate incubated for 30 mins. On the set-up: species or system Bacteria.
Data set [6] relates to HEK293. The data set can be described thus: Cytotoxicity against human HEK293 cells at 1 to 100 uM and measured by MTT assay. In kind it is toxicity, cell-based. As to conditions: hek293, 100 µM, dose 1-100 µM.
Data set [7] is described as follows: Competitive inhibition of bacterial NDM-1 using CDC-1 as substrate and measured by Dixon plot analysis. On the set-up: species or system Bacteria.
A short description of data set [8]: Inhibition of bacterial NDM-13 using CDC-1 as substrate incubated for 30 mins. On the set-up: species or system Bacteria.
The subject of data set [9] is Escherichia coli. The data set can be described thus: Potentiation of meropenem-induced antibacterial activity against Escherichia coli expressing NDM-1 at 0.25 ug/ml assessed as meropenem MIC by broth microdilution method. In kind it is functional. As to conditions: dose 0.25 µg/ml.
Data set [10] concerns Escherichia coli. In words: Potentiation of meropenem-induced antibacterial activity against Escherichia coli expressing NDM-1 at 8 ug/ml assessed as meropenem MIC by broth microdilution method. As to conditions: dose 8 µg/ml. The class given is functional.
Data set [11] can be described thus: Inhibition of bacterial NDM-12 using CDC-1 as substrate incubated for 30 mins. On the set-up: species or system Bacteria.
Data set [12] deals with HEK293. The data set can be described thus: Cytotoxicity against human HEK293 cells at 50 uM and measured by propidium iodide (PI) staining method. The class given is toxicity, cell-based. As to conditions: hek293, 50 µM.
Data set [13] can be described thus: Inhibition of bacterial NDM-4 using CDC-1 as substrate incubated for 30 mins. On the set-up: species or system Bacteria.
Data set [14] relates to HEK293. In words: Cytotoxicity against human HEK293 cells at 50 uM and measured by Calcien AM staining method. The class given is toxicity, cell-based. As to conditions: hek293, 50 µM.
The next data set relates to Bacteria. In words: Reversible inhibition of bacterial NDM-1 at 10 uM incubated for 30 mins.

In brackets after ≈: the same amount, converted by molar mass. Activity calls are given as the source filed them. The calls are words filed in the database; no cut-off is given here.

On to `CCSCC1=C(C(=O)O)N2C(=O)[C@H](OC)[C@H]2SC1`, for which, in data set [1], half-maximal inhibition (IC50) required 1.2 µM.
With `CO[C@H]1C(=O)N2C(C(=O)O)=C(CSc3nnc(C)s3)CS[C@H]12`, the IC50 was 0.55 µM in data set [1], 13 µM in data set [2] and 16 µM in data set [3].
As to `O=C(O)C1=C(CSC(=O)c2ccccc2)CS[C@@H]2[C@@H](O)C(=O)N12`, in data set [1], the IC50 came out at 0.46 µM. That is a sub-micromolar value.
With `CCS[C@H]1C(=O)N2C(C(=O)O)=C(CSC(=O)c3ccccc3)CS[C@H]12`, the half-maximal inhibitory concentration (IC50) was determined as 0.31 µM in data set [1], 5.2 µM in data set [2] and 0.8 µM in [3].
For the compound `CC(C)O[C@H]1C(=O)N2C(C(=O)O)=C(CSC(=O)c3ccccc3)CS[C@H]12`, the half-maximal inhibitory concentration (IC50) in data set [1] is 1.4 µM.
As to `C[C@@H](O)[C@H]1C(=O)N2C(C(=O)O)=C(S[C@@H]3CN[C@H](C(=O)N(C)C)C3)[C@H](C)[C@H]12` [MEROPENEM], in the data set on Escherichia coli [4], the MIC was 0.031 µg/mL (≈ 0.0808 µM).
For the compound `CO[C@H]1C(=O)N2C(C(=O)O)=C(CSc3nc4ccccc4s3)CS[C@H]12`, the IC50 in data set [5] stood at 0.19 µM; in data set [8], 0.16 µM; in data set [1] it was 0.13 µM; in data set [2] it was 6 µM; in data set [3], 8 µM; in data set [11] it was 0.2 µM. Moreover, it took 0.21 µM to reach half-maximal inhibition in [13] (IC50). Further, the Activity entry in the data set on HEK293 [6], in the data set with HEK293 [12] and in the data set with HEK293 [14] was “Non-Toxic” each time. In data set [7], this compound returned an inhibition constant Ki of 0.21 µM. The MIC in the data set on Escherichia coli [9] is 32 µg/mL; in the data set on Escherichia coli [10], 16 µg/mL. Moreover, the inhibition entry with Bacteria is “Active”.
The compound `CO[C@H]1C(=O)N2C(C(=O)O)=C(COC(C)=O)CS[C@H]12` returned an IC50 in [1] of 0.99 µM.
As for `CCO[C@H]1C(=O)N2C(C(=O)O)=C(CSC(=O)c3ccccc3)CS[C@H]12`, the IC50 in data set [1] is 7.4 µM; in [2] it was 3.6 µM; in [3], 4.6 µM.
On the same counts, the results for `CO[C@H]1C(=O)N2C(C(=O)O)=C(CSc3ccc(C(F)(F)F)cc3)CS[C@H]12` are 0.5 µM, 7.3 µM and 5.5 µM.
As for `O=C(Cc1ccccc1)N[C@H]1C(=O)N2C(C(=O)O)=C(CSC(=O)c3ccccc3)CS[C@H]12`, the IC50 in [1] amounted to 0.22 µM.
With `CO[C@H]1C(=O)N2C(C(=O)O)=C(CSc3nncs3)CS[C@H]12`, the IC50 in [1] came to 1.6 µM; in data set [2] it was 8.1 µM; in data set [3] it was 15 µM.
The corresponding values for `CO[C@H]1C(=O)N2C(C(=O)O)=C(CSc3ccccc3)CS[C@H]12` are 2 µM, 8.1 µM and 7.4 µM.
`CO[C@H]1C(=O)N2C(C(=O)O)=C(CSC(=O)c3ccccc3)CS(=O)(=O)[C@H]12` registered an IC50 in data set [1] above 50 µM.
Still for that read-out and setting: the figure for `O=C(O)CN(CCN(CC(=O)O)CC(=O)O)CC(=O)O` [EDETIC ACID] is 0.54 µM.
In the case of `O=C(Cc1ccccc1)N[C@@H]1C(=O)N2C(C(=O)O)=C(CSC(=O)c3ccccc3)CS[C@H]12`, the half-inhibitory concentration (IC50) in data set [1] came to 9.4 µM.
Still for that read-out and setting: the figure for `CCOC(=O)CSCC1=C(C(=O)O)N2C(=O)[C@H](OC)[C@H]2SC1` is 0.62 µM.
Regarding `CO[C@H]1C(=O)N2C(C(=O)O)=C(C[Se]c3ccccc3)CS[C@H]12`, the IC50 stood at 0.19 µM in [1], 6 µM in data set [2] and 6.6 µM in data set [3].
For `CO[C@H]1C(=O)N2C(C(=O)O)=C(CSC(=O)c3ccccc3)CS[C@H]12`, the values for the IC50 in data set [1], in [2] and in data set [3] were above 50 µM, 9.1 µM and 7.9 µM, respectively.
The compound `CO[C@H]1C(=O)N2C(C(=O)O)=C(CSC(=O)c3ccccc3)C[S+]([O-])[C@H]12` (stereo not given in full) displayed an IC50 in [1] of 0.25 µM.
The same measure, in the same setting: the figure for `CO[C@H]1C(=O)N2C(C(=O)O)=C(C)CS[C@H]12` is above 50 µM.
Take `CO[C@H]1C(=O)N2C(C(=O)O)=C(CSc3nc4ccc([N+](=O)[O-])cc4s3)CS[C@H]12`: the values for the IC50 in [1], in data set [2] and in data set [3] were 0.76 µM, 1 µM and 15 µM, respectively.
Consider `O=C(O)C1=C(CSC(=O)c2ccccc2)CS[C@@H]2CC(=O)N12`, for which the concentration for half-maximal inhibition (IC50) in data set [1] is above 50 µM.
The same measure, in the same setting: as for `O=C(O)C1=C(CSc2nc3ccccc3s2)CS[C@@H]2CC(=O)N12`, the figure is above 50 µM.
Turning to `CO[C@H]1C(=O)N2C(C(=O)O)=C(CSc3nnnn3C)CS[C@H]12`, the IC50 in [1] is 0.63 µM; in [2], 5.5 µM; in [3], 20 µM.
For `CO[C@H]1C(=O)N2C(C(=O)O)=C(CSc3ccc(NC(C)=O)cc3)CS[C@H]12`, the IC50 amounted to 0.2 µM in data set [1], 5.8 µM in data set [2] and 8.4 µM in [3].
In the case of `CO[C@@]1(NC(=O)Cc2ccccc2)C(=O)N2C(C(=O)O)=C(CSC(=O)c3ccccc3)CS[C@@H]21`, in data set [1], the IC50 amounted to 9.6 µM.
As for `CO[C@H]1C(=O)N2C(C(=O)O)=C(CSc3ncccn3)CS[C@H]12`, the results for the IC50 in [1], in data set [2] and in [3] were 0.63 µM, 8.6 µM and 8.8 µM, respectively.
